This note sets out measurements from patent US6174858A, “Conjugates useful in the treatment of prostate cancer” (Merck & Co., Inc., priority 1998, dated 2001).

Where two headings read alike, the source gives them in different places.

Assay [1] deals with LNCaP prostate tumor cells. Description: In vitro cytotoxicity, Alamar Blue assay, LNCaP cell kill. In kind it is cell-based. Conditions: 72 HRS. The method, then: (§1) In vitro Assay of Cytotoxicity of Peptidyl Derivatives of Vinca Drugs
(§2) Specifically, cell cultures of LNCap prostate tumor cells, Colo32ODM cells (designated C320) or T47D cells in 96 well plates was diluted with medium containing various concentrations of a given conjugate (final plate well volume of 200 μl). […] The cells were incubated for 3 days at 37° C., 20 μl of Alamar Blue is added to the assay well. The cells were further incubated and the assay plates were read on a EL-310 ELISA reader at the dual wavelengths of 570 and 600 nm at 4 and 7 hours after addition of Alamar Blue. Relative percentage viability at the various concentration of conjugate tested was then calculated versus control (no conjugate) cultures and an EC50 was determined. Unless otherwise indicated, the acetate salt of the conjugate was tested.
On the technique in general: Alamar Blue is a resazurin reagent that responds to reducing activity.

Assay [2] concerns Colo320DM cells. Nature of the assay: In vitro cytotoxicity, Alamar Blue assay, Colo320DM control cell line (does not express free PSA). The assay is classed as cell-based. The following applies: 72 HRS. The method, then:
as §1
as §2, with “The cytotoxicities of the cleaveable oligopeptide-vinca drug conjugates, prepared as described in Example 3, against a line of cells which is known to be killed by unmodified vinca drug was assessed with an Alamar Blue assay. Specifically,” for “Specifically,”

[3] abbreviates: second part of Table 2, read-out: LNCaP Cell Kill in 72 HRS. {48 HRS} EC 50.
[4] abbreviates: second part of Table 2, read-out: Colo320DM EC 50.
[5] abbreviates: read-out: LNCaP Cell Kill in 72 HRS. {48 HRS} EC 50.

On to `CCC1(O)CC2CN(CCc3c([nH]c4ccccc34)C(C(=O)OC)(c3cc4c(cc3OC)N(C)C3C(O)(C(=O)OC)C(OC(=O)C5CCCN5C(=O)C(CO)NC(=O)C(N)CO)C5(CC)C=CCN6CCC43C65)C2)C1` (centres unmarked) [4-O-(SSP)-dAc-VIN], for which the EC50 stood at 2000 nM in assay [1] (setting [3]) and 14500 nM in assay [2] (setting [4]).

On to `CCC1(O)CC2CN(CCc3c([nH]c4ccccc34)C(C(=O)OC)(c3cc4c(cc3OC)N(C)C3C(O)(C(=O)OC)C(OC(=O)C(N)Cc5ccccc5)C5(CC)C=CCN6CCC43C65)C2)C1` (centres unmarked) [(4-O-Phe)-(dAc)-VIN], for which the EC50 in assay [1] (setting [3]) worked out at 3800 nM; in assay [2] (setting [4]), 2200 nM.

Regarding `CCC1(O)CC2CN(CCc3c([nH]c4ccccc34)C(C(=O)OC)(c3cc4c(cc3OC)N(C)C3C(O)(C(=O)OC)C(OC(=O)C5CCCN5C(=O)C(N)CO)C5(CC)C=CCN6CCC43C65)C2)C1` (centres unmarked) [4-O-(SP)-dAc-VIN], the EC50 was 100 nM in assay [1] (setting [3]) and 300 nM in assay [2] (setting [4]).

As to `CCC1(O)CC2CN(CCc3c([nH]c4ccccc34)C(C(=O)OC)(c3cc4c(cc3OC)N(C)C3C(O)(C(=O)OC)C(OC(=O)C(C)NC)C5(CC)C=CCN6CCC43C65)C2)C1` (centres unmarked) [4-O-[N-Me-dA]-dAc-VIN], the EC50 in assay [1] (setting [3]) was found to be 1000 nM; in assay [2] (setting [4]) it was 1700 nM.

As to `CCC1(O)CC2CN(CCc3c([nH]c4ccccc34)C(C(=O)OC)(c3cc4c(cc3OC)N(C)C3C(O)(C(=O)OC)C(OC(=O)C5CC(O)CN5)C5(CC)C=CCN6CCC43C65)C2)C1` [(4-O-4-trans-L-Hyp)-dAc-VIN], the EC50 in assay [1] (setting [5]) worked out at 600 nM; in assay [2] (read-out: Colo320DM EC 50) it was 1100 nM.

On to `CCC(N)C(=O)O[C@@H]1[C@]2(CC)C=CCN3CC[C@@]4(c5cc([C@@]6(C(=O)OC)C[C@@H]7CN(CCc8c6[nH]c6ccccc86)C[C@](O)(CC)C7)c(OC)cc5N(C)[C@H]4[C@@]1(O)C(=O)OC)[C@@H]32` (some centres unmarked) [4-O-Abu-(dAc)-VIN, I isoform], for which the EC50 in assay [1] (setting [3]) is 3900 nM; in assay [2] (setting [4]), 2300 nM.

As for `CC[C@]1(O)C[C@H]2CN(CCc3c([nH]c4ccccc34)[C@@](C(=O)OC)(c3cc4c(cc3OC)N(C)[C@H]3[C@@](O)(C(=O)OC)[C@H](OC(=O)CNC)[C@]5(CC)C=CCN6CC[C@]43[C@@H]65)C2)C1` [4-O-sarcosyl-(dAc)-VIN], the EC50 in assay [1] (setting [5]) came out at 1300 nM; in assay [2] (read-out: Colo320DM EC 50) it was 1800 nM.

For the compound `CC[C@]1(O)C[C@@H]2CN(CCc3c([nH]c4ccccc34)[C@@](C(=O)OC)(c3cc4c(cc3OC)N(C)[C@H]3[C@@](O)(C(=O)OC)[C@H](OC(C)=O)[C@]5(CC)C=CCN6CC[C@]43[C@@H]65)C2)C1` [VINBLASTINE, vinblastine, reference compound], the EC50 in assay [1] (Homo sapiens, read-out: LNCaP Cell Kill in 72 HRS. {48 HRS} EC 50) was found to be 500 nM; in assay [2] (Homo sapiens, COLO 320DM, read-out: Colo320DM EC 50) it was 500 nM.

As for `CCC1(O)CC2CN(CCc3c([nH]c4ccccc34)C(C(=O)OC)(c3cc4c(cc3OC)N(C)C3C(O)(C(=O)OC)C(OC(=O)C5CCCN5)C5(CC)C=CCN6CCC43C65)C2)C1` (centres unmarked) [4-O-(d)-prolyl-(dAc)-VIN ester], the EC50 is 2000 nM in assay [1] (setting [3]) and 4100 nM in assay [2] (setting [4]).

As to `CCC1(O)CC2CN(CCc3c([nH]c4ccccc34)C(C(=O)OC)(c3cc4c(cc3OC)N(C)C3C(O)(C(=O)OC)C(OC(=O)CO)C5(CC)C=CCN6CCC43C65)C2)C1` (centres unmarked) [4-hydroxyacetyl-VIN], the EC50 in assay [1] (setting [3]) came out at 1300 nM; in assay [2] (setting [4]), 3300 nM.

Consider `CCC(N)C(=O)OC1C2(CC)C=CCN3CCC4(c5cc(C6(C(=O)OC)CC7CN(CCc8c6[nH]c6ccccc86)CC(O)(CC)C7)c(OC)cc5N(C)C4C1(O)C(=O)OC)C32` (racemic) [4-O-Abu-(dAc)-VIN, racemic mixture], for which the EC50 in assay [1] (setting [3]) came out at 3800 nM; in assay [2] (setting [4]), 5500 nM.

Consider `CCC1(O)CC2CN(CCc3c([nH]c4ccccc34)C(C(=O)OC)(c3cc4c(cc3OC)N(C)C3C(O)(C(=O)OC)C(OC(=O)C5CCCCN5)C5(CC)C=CCN6CCC43C65)C2)C1` (centres unmarked) [4-O-pipecolyl-dAc-VIN], for which the EC50 in assay [1] (setting [3]) and in assay [2] (setting [4]) was 700 nM each time.

Turning to `CC[C@]1(O)C[C@H]2CN(CCc3c([nH]c4ccccc34)[C@@](C(=O)OC)(c3cc4c(cc3OC)N(C)[C@H]3[C@@](O)(C(=O)OC)[C@H](OC(=O)[C@@H](N)CC(C)C)[C@]5(CC)C=CCN6CC[C@]43[C@@H]65)C2)C1` [4-O-leucyl-(dAc)-VIN], the EC50 in assay [1] (setting [3]) and in assay [2] (setting [4]) was 4500 nM throughout.
